Each structure is given as a SMILES string. Activity calls are given as the source filed them. The rule behind the calls is not given here.

The nature of data set [1]: Cytotoxicity against human HMEC cells assessed as inhibition of cell viability incubated for 3 days by AlamarBlue based fluorescence analysis. (In general: Alamar Blue is a resazurin reagent that responds to reducing activity.)
The target of data set [2] is T1, Histone deacetylase 2 (Homo sapiens, UniProt Q92769). The following applies: Sf9, time 60.0 min.
The next data set has as its system MCF7. The data set can be described thus: Downregulation of E2F7 gene expression in human MCF7 cells at 2 uM incubated for 24 hrs by microarray analysis. In kind it is functional, cell-based.
For a further data set, the target named is T2, Histone deacetylase 8 (Homo sapiens, UniProt Q9BY41).
T2 sequence (Q9BY41 whole entry): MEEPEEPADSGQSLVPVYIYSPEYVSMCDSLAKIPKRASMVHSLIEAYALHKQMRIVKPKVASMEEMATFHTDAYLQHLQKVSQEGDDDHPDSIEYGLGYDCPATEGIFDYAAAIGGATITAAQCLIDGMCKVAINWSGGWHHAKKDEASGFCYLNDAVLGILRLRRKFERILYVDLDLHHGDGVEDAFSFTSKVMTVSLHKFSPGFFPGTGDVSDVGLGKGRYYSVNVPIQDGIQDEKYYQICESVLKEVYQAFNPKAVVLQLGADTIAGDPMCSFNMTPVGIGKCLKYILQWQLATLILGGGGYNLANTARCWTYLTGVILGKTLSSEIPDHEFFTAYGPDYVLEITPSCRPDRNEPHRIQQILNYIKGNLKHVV
The data set is described as follows: Inhibition of full-length recombinant human C-terminal His-tagged HDAC8 expressed in Sf9 insect cells using aminoluciferin peptide substrate preincubated for 3 hrs followed by substrate addition and measured after 30 mins by HDAC-Glo I/II chemiluminescence assay.

Data set [3] addresses Histone deacetylase 5 (Homo sapiens) (UniProt Q9UQL6). The data set can be described thus: Inhibition of recombinant human HDAC5 using fluorogenic substrate preincubated for 3 hrs followed by substrate addition and measured after 30 mins by fluorescence analysis. The following applies: time 3.5 hrs.
Data set [4] addresses T3, Histone deacetylase 7 (Homo sapiens) (UniProt Q8WUI4).
T3 sequence (whole entry): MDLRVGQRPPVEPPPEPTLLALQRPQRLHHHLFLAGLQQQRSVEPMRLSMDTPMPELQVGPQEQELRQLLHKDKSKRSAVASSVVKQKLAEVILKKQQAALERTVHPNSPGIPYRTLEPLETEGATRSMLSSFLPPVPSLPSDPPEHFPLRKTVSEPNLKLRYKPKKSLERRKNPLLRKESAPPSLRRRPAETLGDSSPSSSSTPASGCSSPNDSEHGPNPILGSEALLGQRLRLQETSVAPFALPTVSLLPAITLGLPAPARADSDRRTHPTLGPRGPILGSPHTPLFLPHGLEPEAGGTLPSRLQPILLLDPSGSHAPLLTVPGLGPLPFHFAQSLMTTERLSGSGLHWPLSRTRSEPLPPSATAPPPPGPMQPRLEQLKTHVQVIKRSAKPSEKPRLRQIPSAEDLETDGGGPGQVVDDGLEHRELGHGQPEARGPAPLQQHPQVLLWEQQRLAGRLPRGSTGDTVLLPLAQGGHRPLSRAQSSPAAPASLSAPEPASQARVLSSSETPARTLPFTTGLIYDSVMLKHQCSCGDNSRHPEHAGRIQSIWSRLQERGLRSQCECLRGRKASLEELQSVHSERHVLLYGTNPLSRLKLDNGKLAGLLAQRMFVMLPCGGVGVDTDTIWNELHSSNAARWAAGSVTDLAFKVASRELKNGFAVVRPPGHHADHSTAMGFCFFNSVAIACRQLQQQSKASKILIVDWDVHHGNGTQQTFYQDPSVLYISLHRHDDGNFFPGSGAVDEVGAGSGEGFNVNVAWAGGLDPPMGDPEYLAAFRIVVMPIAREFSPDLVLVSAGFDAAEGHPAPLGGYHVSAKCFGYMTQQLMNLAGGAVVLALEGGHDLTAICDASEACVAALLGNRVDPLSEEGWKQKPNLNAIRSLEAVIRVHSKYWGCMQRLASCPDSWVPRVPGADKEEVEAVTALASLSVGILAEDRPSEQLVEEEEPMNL
The data set is described as follows: Inhibition of recombinant human HDAC7 using fluorogenic substrate preincubated for 3 hrs followed by substrate addition and measured after 30 mins by fluorescence analysis. The following applies: time 3.5 hrs.

The target of data set [5] is T1, Histone deacetylase 2. The data set can be described thus: biochemical. It counts as cell-based, Sf9.
The target of data set [6] is Histone deacetylase 3/NCoR1 (Homo sapiens, UniProt O15379). The data set is described as follows: Inhibition of recombinant human HDAC3/human GST-tagged NCOR1 (397 to 503 residues) using K(Ac)382 peptide substrate preincubated for 3 hrs followed by substrate addition and measured after 30 mins by HDAC-Glo I/II chemiluminescence assay. It counts as protein-complex assay.

The target in data set [7] is T1, Histone deacetylase 2. The following applies: Sf9, time 60.0 min. The source holds these as a separate data set.
Data set [8] deals with T1, Histone deacetylase 2. The data set can be described thus: Inhibition of full-length recombinant human C-terminal GST tagged HDAC2 expressed in Sf9 insect cells using aminoluciferin peptide substrate at 100 nM preincubated for 3 hrs followed by substrate addition and measured after 30 mins by HDAC-Glo I/II chemiluminescence assay. The following applies: time 3.5 hrs.
The target in data set [9] is T1, Histone deacetylase 2. The data set is described as follows: Inhibition of full-length recombinant human C-terminal GST tagged HDAC2 expressed in Sf9 insect cells assessed as second order dissociation rate constant (k-2) using Ac-LGK(Ac)-AMC substrate and measured for 60 mins at 2 mins interval by fluorescence analysis.
The target of data set [10] is T1, Histone deacetylase 2. The data set is described as follows: Inhibition of full-length recombinant human C-terminal GST tagged HDAC2 expressed in Sf9 insect cells assessed as second order […] rate constant (k2) using Ac-LGK(Ac)-AMC substrate and measured for 60 mins at 2 mins interval by fluorescence analysis.
The next data set deals with N2a. The data set is described as follows: Induction of neurite outgrowth in mouse Neuro2a cells assessed as percentage of neurite-bearing cells at 20 to 2000 nM incubated for 48 hrs by microscopy. In kind it is functional, cell-based. The following applies: dose 20-2000 nM.
The test system of a further data set is Mus musculus. The data set can be described thus: Neuroprotective activity in BALB/c mouse assessed as increase in spine density in granule neuron dendrites at 1 uM,SCi administered through osmotic minipumps incubated for 48 hrs by bright-field microscopy. It counts as functional, organism-based.

T1 sequence (Q92769 whole entry): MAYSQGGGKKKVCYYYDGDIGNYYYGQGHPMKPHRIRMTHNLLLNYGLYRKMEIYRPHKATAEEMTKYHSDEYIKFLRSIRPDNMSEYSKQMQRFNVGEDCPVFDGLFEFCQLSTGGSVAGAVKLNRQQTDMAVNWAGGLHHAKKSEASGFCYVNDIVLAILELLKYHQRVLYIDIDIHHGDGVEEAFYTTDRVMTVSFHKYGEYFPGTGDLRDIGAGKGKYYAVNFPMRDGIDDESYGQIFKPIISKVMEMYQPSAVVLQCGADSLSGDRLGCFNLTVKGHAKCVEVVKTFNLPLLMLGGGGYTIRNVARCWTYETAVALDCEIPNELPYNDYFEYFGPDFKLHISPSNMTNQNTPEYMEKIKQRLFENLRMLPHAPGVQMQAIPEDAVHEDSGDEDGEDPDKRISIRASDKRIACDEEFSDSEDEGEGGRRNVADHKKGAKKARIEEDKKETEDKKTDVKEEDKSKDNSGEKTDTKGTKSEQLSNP
Sequence of Histone deacetylase 5 (Homo sapiens) (Q9UQL6 whole entry): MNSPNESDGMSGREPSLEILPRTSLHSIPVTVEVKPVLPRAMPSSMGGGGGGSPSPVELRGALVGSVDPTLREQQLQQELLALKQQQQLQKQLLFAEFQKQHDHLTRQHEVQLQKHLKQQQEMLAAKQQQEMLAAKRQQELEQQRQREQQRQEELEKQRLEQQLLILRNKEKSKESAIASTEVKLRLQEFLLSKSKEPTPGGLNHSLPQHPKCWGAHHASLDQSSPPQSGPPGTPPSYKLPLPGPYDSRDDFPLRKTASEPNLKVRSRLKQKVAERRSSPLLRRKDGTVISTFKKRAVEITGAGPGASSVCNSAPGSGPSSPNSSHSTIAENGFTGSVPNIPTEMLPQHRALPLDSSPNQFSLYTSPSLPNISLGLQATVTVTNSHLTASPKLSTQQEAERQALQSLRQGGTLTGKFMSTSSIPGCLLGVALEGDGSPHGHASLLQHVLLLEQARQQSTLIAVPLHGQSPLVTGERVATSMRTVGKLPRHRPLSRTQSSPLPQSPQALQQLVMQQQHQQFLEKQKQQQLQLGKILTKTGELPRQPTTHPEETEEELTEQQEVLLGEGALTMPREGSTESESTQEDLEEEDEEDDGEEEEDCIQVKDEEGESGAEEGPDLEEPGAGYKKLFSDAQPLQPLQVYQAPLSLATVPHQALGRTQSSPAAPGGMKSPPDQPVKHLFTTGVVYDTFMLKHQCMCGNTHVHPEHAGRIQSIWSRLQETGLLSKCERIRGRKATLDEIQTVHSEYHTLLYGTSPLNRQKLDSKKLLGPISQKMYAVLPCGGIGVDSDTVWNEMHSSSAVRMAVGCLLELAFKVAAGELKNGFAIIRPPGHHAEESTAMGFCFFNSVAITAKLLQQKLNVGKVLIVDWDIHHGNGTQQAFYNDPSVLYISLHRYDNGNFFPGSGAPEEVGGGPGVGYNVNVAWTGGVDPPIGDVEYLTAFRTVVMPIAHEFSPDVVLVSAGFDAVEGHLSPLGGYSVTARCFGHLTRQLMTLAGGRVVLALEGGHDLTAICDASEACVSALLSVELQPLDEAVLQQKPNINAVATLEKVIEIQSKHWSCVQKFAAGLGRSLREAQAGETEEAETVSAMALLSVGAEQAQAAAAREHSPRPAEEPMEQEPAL
Sequence of Histone deacetylase 3/NCoR1 (O15379 whole entry, the tested form may be a part): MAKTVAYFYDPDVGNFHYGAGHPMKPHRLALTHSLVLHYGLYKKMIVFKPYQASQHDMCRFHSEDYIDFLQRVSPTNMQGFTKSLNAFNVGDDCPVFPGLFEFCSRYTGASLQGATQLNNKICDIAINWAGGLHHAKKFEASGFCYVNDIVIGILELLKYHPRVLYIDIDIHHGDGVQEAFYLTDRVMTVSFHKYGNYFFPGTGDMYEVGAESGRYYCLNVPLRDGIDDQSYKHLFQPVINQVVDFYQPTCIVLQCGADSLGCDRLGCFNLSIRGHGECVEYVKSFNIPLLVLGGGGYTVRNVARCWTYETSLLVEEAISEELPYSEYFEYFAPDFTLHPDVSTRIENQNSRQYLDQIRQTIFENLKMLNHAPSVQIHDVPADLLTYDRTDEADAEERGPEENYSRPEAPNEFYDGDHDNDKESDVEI
Sequence of Histone deacetylase 3/NCoR1 (O75376 whole entry, further chain, the tested form may be a part): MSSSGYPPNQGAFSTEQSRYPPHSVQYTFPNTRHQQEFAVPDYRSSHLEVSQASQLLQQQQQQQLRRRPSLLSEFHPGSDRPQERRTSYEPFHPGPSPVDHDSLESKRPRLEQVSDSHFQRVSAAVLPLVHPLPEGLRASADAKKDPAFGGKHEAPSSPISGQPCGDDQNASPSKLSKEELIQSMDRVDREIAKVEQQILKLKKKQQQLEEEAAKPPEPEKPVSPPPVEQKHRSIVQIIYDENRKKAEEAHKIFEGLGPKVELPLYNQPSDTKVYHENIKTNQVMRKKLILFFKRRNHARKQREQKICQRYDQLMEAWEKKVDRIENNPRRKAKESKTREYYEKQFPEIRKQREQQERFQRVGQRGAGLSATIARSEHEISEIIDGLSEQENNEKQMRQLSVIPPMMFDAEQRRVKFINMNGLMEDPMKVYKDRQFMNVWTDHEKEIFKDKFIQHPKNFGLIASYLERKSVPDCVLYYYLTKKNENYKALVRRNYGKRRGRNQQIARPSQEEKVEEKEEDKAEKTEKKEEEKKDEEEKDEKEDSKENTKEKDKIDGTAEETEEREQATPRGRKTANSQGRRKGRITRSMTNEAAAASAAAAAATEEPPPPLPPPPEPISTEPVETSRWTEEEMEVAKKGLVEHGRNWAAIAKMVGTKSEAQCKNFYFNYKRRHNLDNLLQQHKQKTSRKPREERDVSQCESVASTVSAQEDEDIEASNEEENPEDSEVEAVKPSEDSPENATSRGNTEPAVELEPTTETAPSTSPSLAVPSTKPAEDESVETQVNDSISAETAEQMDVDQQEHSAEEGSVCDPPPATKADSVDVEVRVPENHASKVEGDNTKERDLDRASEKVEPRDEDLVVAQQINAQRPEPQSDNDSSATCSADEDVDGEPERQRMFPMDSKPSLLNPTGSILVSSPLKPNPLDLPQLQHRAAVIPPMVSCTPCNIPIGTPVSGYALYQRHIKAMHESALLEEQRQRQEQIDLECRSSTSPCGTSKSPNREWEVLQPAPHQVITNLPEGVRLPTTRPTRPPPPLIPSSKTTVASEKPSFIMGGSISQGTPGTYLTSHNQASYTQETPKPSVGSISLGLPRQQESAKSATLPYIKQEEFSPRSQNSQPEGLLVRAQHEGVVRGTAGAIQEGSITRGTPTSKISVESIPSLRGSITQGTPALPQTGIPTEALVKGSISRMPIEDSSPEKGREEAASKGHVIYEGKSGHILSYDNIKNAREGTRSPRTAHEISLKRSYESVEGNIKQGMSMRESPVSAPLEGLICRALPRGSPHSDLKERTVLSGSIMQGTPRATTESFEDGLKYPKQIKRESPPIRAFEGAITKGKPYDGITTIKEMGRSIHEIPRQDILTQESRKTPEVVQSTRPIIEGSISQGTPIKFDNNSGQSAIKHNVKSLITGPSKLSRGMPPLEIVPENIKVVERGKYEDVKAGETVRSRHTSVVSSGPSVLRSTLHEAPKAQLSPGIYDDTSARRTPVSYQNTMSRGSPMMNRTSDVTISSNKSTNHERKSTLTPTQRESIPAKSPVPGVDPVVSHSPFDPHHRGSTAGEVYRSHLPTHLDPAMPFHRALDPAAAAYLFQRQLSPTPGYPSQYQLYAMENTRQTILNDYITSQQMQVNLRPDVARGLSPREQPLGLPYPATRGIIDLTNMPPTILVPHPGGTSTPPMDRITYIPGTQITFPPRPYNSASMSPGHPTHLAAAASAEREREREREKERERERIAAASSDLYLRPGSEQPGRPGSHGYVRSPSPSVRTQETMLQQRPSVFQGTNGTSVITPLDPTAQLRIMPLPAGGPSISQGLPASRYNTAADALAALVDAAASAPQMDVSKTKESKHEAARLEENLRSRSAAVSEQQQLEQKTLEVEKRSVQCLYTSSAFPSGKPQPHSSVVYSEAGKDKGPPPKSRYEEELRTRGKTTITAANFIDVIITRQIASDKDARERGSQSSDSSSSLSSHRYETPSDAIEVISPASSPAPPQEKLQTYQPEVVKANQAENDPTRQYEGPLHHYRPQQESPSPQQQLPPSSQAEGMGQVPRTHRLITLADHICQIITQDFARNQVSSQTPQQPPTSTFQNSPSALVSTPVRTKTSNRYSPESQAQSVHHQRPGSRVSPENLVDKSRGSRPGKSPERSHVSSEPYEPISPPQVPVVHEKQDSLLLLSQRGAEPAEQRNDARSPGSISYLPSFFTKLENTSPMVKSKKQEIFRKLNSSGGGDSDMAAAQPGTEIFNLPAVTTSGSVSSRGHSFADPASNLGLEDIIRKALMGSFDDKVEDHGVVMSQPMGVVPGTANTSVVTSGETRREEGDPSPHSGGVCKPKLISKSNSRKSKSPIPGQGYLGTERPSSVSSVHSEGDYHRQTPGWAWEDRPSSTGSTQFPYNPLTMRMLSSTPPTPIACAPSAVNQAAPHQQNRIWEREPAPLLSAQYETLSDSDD

One may read the IC50 as the concentration at which inhibition is half-maximal. A word on the inhibition: it is how much of the control response was suppressed. In general, Ki refers to a measure of affinity in units of concentration, obtained from inhibition or displacement. Higher therefore signals weaker binding. In the case of `Nc1ccc(-c2cccs2)cc1NC(=O)c1ccc(-c2cn(CCc3ccccn3)nn2)cc1`, the IC50 at 3 days in data set [1] is 4.35 µM. Moreover, on Histone deacetylase 2 [2], the Kdiss came to 8.33e-05 s⁻¹. For the same compound, in the data set on MCF7, the outcome was Active. Also, the concentration for half-maximal inhibition (IC50) (at Histone deacetylase 8; in [6]) was over 10 µM each time. Moreover, the inhibition entry in data set [3] and in data set [4] was “inactive” in each case. This compound also gave a Ki at Histone deacetylase 2 [5] of 0.0098 µM. For the same compound, on Histone deacetylase 2 [7], the ka came out at 8830 M⁻¹ s⁻¹. Besides, at Histone deacetylase 2 [8], the inhibition worked out at 81%.

For the compound `Nc1ccc(-c2cccs2)cc1NC(=O)c1ccc(-c2cn(C[S+]([O-])c3ccccc3)nn2)cc1` (configuration not stated), the IC50 at 3 days in [1] was over 10 µM. The compound also had a Kdiss on Histone deacetylase 2 [2] of 0.000117 s⁻¹. Moreover, the result in the data set on MCF7 was Active. The half-maximal inhibitory concentration (IC50) on Histone deacetylase 8 is 4.45 µM; in [6], over 10 µM. Also, the inhibition result in [3] and in [4] was “inactive” each time. Affinity at Histone deacetylase 2 [5] was put at a Ki of 0.022 µM. This compound gave a ka at Histone deacetylase 2 [7] of 5330 M⁻¹ s⁻¹. Moreover, at Histone deacetylase 2 [8], the inhibition came to 87%.

Take `Nc1ccc(-c2cccs2)cc1NC(=O)c1ccc(-c2cn(CS(=O)(=O)c3ccccc3)nn2)cc1`: the IC50 at 3 days in data set [1] stood at 9.85 µM. For the same compound, the outcome with MCF7, in the data set on N2a and in the data set on Mus musculus was Active. Moreover, the Kdiss on Histone deacetylase 2 [9] amounted to 3.33e-05 s⁻¹. In addition, the IC50 (at Histone deacetylase 8; in data set [6]) was over 10 µM in each case. Moreover, the ka on Histone deacetylase 2 [10] came to 683 M⁻¹ s⁻¹. The inhibition entry in data set [3] and in data set [4] was “inactive” in each case. In addition, at Histone deacetylase 2 [5], affinity was put at a Ki of 0.0062 µM. In addition, the inhibition at Histone deacetylase 2 [8] came out at 77%.

These data come from ChEMBL document CHEMBL5390237, “Discovery of Selective Histone Deacetylase 1 and 2 Inhibitors: Screening of a Focused Library Constructed by Click Chemistry, Kinetic Binding Analysis, and Biological Evaluation” (J Med Chem, 2023).
